Numbers after ± are expanded uncertainties.
Assay: xn = mol fraction of the nth substance listed
Details: 101 kPa, Liquid; for viscosity: Falling or rolling sphere viscometry; for mass density: Vibrating tube method

CCCC(=O)OCC [ethyl butanoate] + CCCCCCO
Details | mass density [kg/m3] | viscosity [mPa·s]
288.15 K, x1 = 0.0997 | 828.32 ± 0.27 | 4.176 ± 0.091
288.15 K, x1 = 0.1998 | 834.25 ± 0.27 | 2.965 ± 0.065
288.15 K, x1 = 0.3002 | 840.39 ± 0.27 | 2.214 ± 0.048
288.15 K, x1 = 0.4 | 846.47 ± 0.27 | 1.735 ± 0.038
288.15 K, x1 = 0.5 | 852.62 ± 0.27 | 1.399 ± 0.031
288.15 K, x1 = 0.5998 | 858.84 ± 0.27 | 1.17 ± 0.026
288.15 K, x1 = 0.6999 | 865.11 ± 0.27 | 0.9966 ± 0.022
288.15 K, x1 = 0.7999 | 871.43 ± 0.27 | 0.8726 ± 0.019
288.15 K, x1 = 0.8998 | 877.77 ± 0.27 | 0.7818 ± 0.017
288.15 K, x1 = 1 | 884.16 ± 0.27 | 0.7224 ± 0.016
293.15 K, x1 = 0.0997 | 824.57 ± 0.27 | 3.6 ± 0.079
293.15 K, x1 = 0.1998 | 830.32 ± 0.27 | 2.6 ± 0.057
293.15 K, x1 = 0.3002 | 836.29 ± 0.27 | 1.97 ± 0.043
293.15 K, x1 = 0.4 | 842.19 ± 0.27 | 1.563 ± 0.034
293.15 K, x1 = 0.5 | 848.18 ± 0.27 | 1.274 ± 0.028
293.15 K, x1 = 0.5998 | 854.23 ± 0.27 | 1.075 ± 0.023
293.15 K, x1 = 0.6999 | 860.32 ± 0.27 | 0.9233 ± 0.02
293.15 K, x1 = 0.7999 | 866.48 ± 0.27 | 0.8142 ± 0.018
293.15 K, x1 = 0.8998 | 872.65 ± 0.27 | 0.7339 ± 0.016
293.15 K, x1 = 1 | 878.9 ± 0.27 | 0.6808 ± 0.015
298.15 K, x1 = 0.0997 | 820.8 ± 0.27 | 3.124 ± 0.068
298.15 K, x1 = 0.1998 | 826.39 ± 0.27 | 2.295 ± 0.05
298.15 K, x1 = 0.3002 | 832.17 ± 0.27 | 1.762 ± 0.038
298.15 K, x1 = 0.4 | 837.9 ± 0.27 | 1.414 ± 0.031
298.15 K, x1 = 0.5 | 843.72 ± 0.27 | 1.166 ± 0.025
298.15 K, x1 = 0.5998 | 849.59 ± 0.27 | 0.991 ± 0.022
298.15 K, x1 = 0.6999 | 855.52 ± 0.27 | 0.857 ± 0.019
298.15 K, x1 = 0.7999 | 861.51 ± 0.27 | 0.761 ± 0.017
298.15 K, x1 = 0.8998 | 867.52 ± 0.27 | 0.6898 ± 0.015
298.15 K, x1 = 1 | 873.62 ± 0.27 | 0.643 ± 0.014
303.15 K, x1 = 0.0997 | 817.02 ± 0.27 | 2.731 ± 0.06
303.15 K, x1 = 0.1998 | 822.43 ± 0.27 | 2.038 ± 0.044
303.15 K, x1 = 0.3002 | 828.03 ± 0.27 | 1.585 ± 0.035
303.15 K, x1 = 0.4 | 833.6 ± 0.27 | 1.286 ± 0.028
303.15 K, x1 = 0.5 | 839.24 ± 0.27 | 1.069 ± 0.023
303.15 K, x1 = 0.5998 | 844.95 ± 0.27 | 0.9185 ± 0.02
303.15 K, x1 = 0.6999 | 850.71 ± 0.27 | 0.7979 ± 0.017
303.15 K, x1 = 0.7999 | 856.53 ± 0.27 | 0.7129 ± 0.016
303.15 K, x1 = 0.8998 | 862.38 ± 0.27 | 0.6492 ± 0.014
303.15 K, x1 = 1 | 868.33 ± 0.27 | 0.6072 ± 0.013
308.15 K, x1 = 0.0997 | 813.22 ± 0.27 | 2.403 ± 0.052
308.15 K, x1 = 0.1998 | 818.46 ± 0.27 | 1.819 ± 0.04
308.15 K, x1 = 0.3002 | 823.88 ± 0.27 | 1.433 ± 0.031
308.15 K, x1 = 0.4 | 829.27 ± 0.27 | 1.174 ± 0.026
308.15 K, x1 = 0.5 | 834.75 ± 0.27 | 0.9852 ± 0.022
308.15 K, x1 = 0.5998 | 840.28 ± 0.27 | 0.8501 ± 0.019
308.15 K, x1 = 0.6999 | 845.88 ± 0.27 | 0.7452 ± 0.016
308.15 K, x1 = 0.7999 | 851.54 ± 0.27 | 0.6686 ± 0.015
308.15 K, x1 = 0.8998 | 857.23 ± 0.27 | 0.6113 ± 0.013
308.15 K, x1 = 1 | 863.02 ± 0.27 | 0.5736 ± 0.013
313.15 K, x1 = 0.0997 | 809.4 ± 0.27 | 2.124 ± 0.046
313.15 K, x1 = 0.1998 | 814.46 ± 0.27 | 1.631 ± 0.036
313.15 K, x1 = 0.3002 | 819.7 ± 0.27 | 1.3 ± 0.028
313.15 K, x1 = 0.4 | 824.92 ± 0.27 | 1.076 ± 0.023
313.15 K, x1 = 0.5 | 830.23 ± 0.27 | 0.9099 ± 0.02
313.15 K, x1 = 0.5998 | 835.6 ± 0.27 | 0.7898 ± 0.017
313.15 K, x1 = 0.6999 | 841.02 ± 0.27 | 0.6964 ± 0.015
313.15 K, x1 = 0.7999 | 846.52 ± 0.27 | 0.6277 ± 0.014
313.15 K, x1 = 0.8998 | 852.06 ± 0.27 | 0.5762 ± 0.013
313.15 K, x1 = 1 | 857.7 ± 0.27 | 0.5425 ± 0.012
318.15 K, x1 = 0.0997 | 805.54 ± 0.27 | 1.887 ± 0.041
318.15 K, x1 = 0.1998 | 810.43 ± 0.27 | 1.469 ± 0.032
318.15 K, x1 = 0.3002 | 815.5 ± 0.27 | 1.184 ± 0.026
318.15 K, x1 = 0.4 | 820.55 ± 0.27 | 0.9878 ± 0.022
318.15 K, x1 = 0.5 | 825.69 ± 0.27 | 0.8422 ± 0.018
318.15 K, x1 = 0.5998 | 830.89 ± 0.27 | 0.7355 ± 0.016
318.15 K, x1 = 0.6999 | 836.15 ± 0.27 | 0.652 ± 0.014
318.15 K, x1 = 0.7999 | 841.48 ± 0.27 | 0.5903 ± 0.013
318.15 K, x1 = 0.8998 | 846.86 ± 0.27 | 0.544 ± 0.012
318.15 K, x1 = 1 | 852.36 ± 0.27 | 0.5132 ± 0.011
323.15 K, x1 = 0.0997 | 801.66 ± 0.27 | 1.7 ± 0.037
323.15 K, x1 = 0.1998 | 806.38 ± 0.27 | 1.332 ± 0.029
323.15 K, x1 = 0.3002 | 811.27 ± 0.27 | 1.089 ± 0.024
323.15 K, x1 = 0.4 | 816.15 ± 0.27 | 0.9186 ± 0.02
323.15 K, x1 = 0.5 | 821.13 ± 0.27 | 0.788 ± 0.017
323.15 K, x1 = 0.5998 | 826.16 ± 0.27 | 0.6919 ± 0.015
323.15 K, x1 = 0.6999 | 831.25 ± 0.27 | 0.6147 ± 0.013
323.15 K, x1 = 0.7999 | 836.43 ± 0.27 | 0.5594 ± 0.012
323.15 K, x1 = 0.8998 | 841.64 ± 0.27 | 0.5176 ± 0.011
323.15 K, x1 = 1 | 847 ± 0.27 | 0.487 ± 0.011
